The text below walks through data of PMC7748244 (ACS Infectious Diseases, 2020).

This assay concerns the target T1, PfJmj3 (Plasmodium falciparum, UniProt Q8IIE4).
T1 sequence (Q8IIE4 1-446): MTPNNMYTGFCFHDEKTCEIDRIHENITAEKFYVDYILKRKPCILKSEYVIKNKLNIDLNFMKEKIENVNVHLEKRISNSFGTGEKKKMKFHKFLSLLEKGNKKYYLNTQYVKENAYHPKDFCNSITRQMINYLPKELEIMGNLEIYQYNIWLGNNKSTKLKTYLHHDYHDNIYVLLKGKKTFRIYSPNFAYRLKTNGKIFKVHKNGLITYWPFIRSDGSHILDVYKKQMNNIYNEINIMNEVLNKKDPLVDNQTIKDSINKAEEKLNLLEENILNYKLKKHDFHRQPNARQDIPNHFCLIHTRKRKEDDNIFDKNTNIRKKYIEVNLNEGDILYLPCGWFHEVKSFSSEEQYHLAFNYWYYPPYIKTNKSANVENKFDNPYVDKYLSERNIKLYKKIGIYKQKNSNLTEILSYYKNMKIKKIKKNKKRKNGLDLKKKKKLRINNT
Description: Succinate-Glo luciferase-coupled assay. Format: biochemical.
As to `Clc1ccc(N/N=C(\c2ccccc2)c2ccccn2)nc1` [JIB-04 E], the IC50 is 2600 nM. For `CN(C)CCCNC(=O)c1ccc(-c2cc(O)c3ncccc3c2)cc1` [ML324] the value was 3300 nM; for `CC(C)C(=O)NC(c1ccco1)c1ccc2cccnc2c1O` (stereo not drawn) [SD-70], 2400 nM.
